The source of these data is US9643940B2, “Amine salt and crystals thereof” (ONO PHARMACEUTICAL CO., LTD., priority 2012, dated 2017).

Data set [1] in a line: Examination of salts of Compound 17 for crystallization. The format is physicochemical. The following applies: for State: salt of Compound 17 with the stated counter base, concentrated from methanol, triturated with various solvents; for State of the salt: salts of Compound 17 with the named bases. The procedure: Then, the mixture was concentrated under reduced pressure and trituration was conducted with using various solvents. For the examination, ethyl acetate, methyl t-butyl ether, n-hexane and the like were used as the solvents.

The nature of data set [2]: Chemical stability test (residual percentage by HPLC after storage). In kind it is physicochemical. The following applies: for Residual percentage (%): relative to sample stored at −20° C., HPLC; for residual percentages: during storage under each condition. The method, then: With respect to Compound 17 and Crystalline forms A, B and C of Compound 18, chemical stability test was conducted according to the method and the condition below.
In a laboratory tube, approximately 1.5 to 3 mg of a test compound was weighed and stored under the condition below.
After storing, the residual percentage (%) of the sample stored under each condition relative to the area percentage of the main component in the sample stored at −20° C. was calculated with using HPLC. In addition, the appearance was observed by eye and compared with the sample stored at −20° C.
80° C.: One week, two weeks and one month
60° C.: Two weeks and one month
40° C.: Two weeks, one month, two months, four months and six months
25° C.-60% RH: Two months, four months and six months
5° C.: Two months, four months and six months
40° C.-75% RH (opened): Two weeks, one month, two months, four months and six months
25° C.-40% RH (opened): Two weeks, one month and two months
25° C.-60% RH (opened): Two weeks, one month and two months
25° C.-75% RH (opened): Two weeks, one month and two months
The samples to be compared with the samples above were stored at −20° C.
A sample to be evaluated was dissolved in a mixed solution of acetonitrile/20 mmol/L KH2PO4 aq. (pH3.0 with H3PO4) (1/1) and a solution of 1.0 mg/mL (concentration as a salt) was prepared.
Detector: Ultraviolet absorptiometer (measurement wavelength: 215 nm)
Column: CHIRALCEL OD-3R (150×4.6 mm, S-5 μm)
Column temperature: 25° C.
Mobile phase: Solution A: 20 mmol/L KH2PO4 aq. (pH3.0 with H3PO4), Solution B: CH3CN
Area measurement range: 35 minutes

A further data set has as its system bladder detrusor. The data set can be described thus: Evaluation of the activity to contract the bladder detrusor (bladder strip specimens, Magnus system). In kind it is tissue-based. The note with it: rat bladder strip; for Change of tension (%): contraction evoked by potassium chloride solution (7.5 mmol/L) set at 100%. The procedure: Rats were anesthetized with pentobarbital, followed by abdominal incision to remove the bladders and the urethras. The bladder bodies were cut in the longitudinal direction to prepare strip specimens with a size of about 10×3 mm. Additionally, each of the urethras was also cut in the longitudinal direction to prepare specimens with a size of about 10×3 mm. The prepared specimens were suspended in Krebs buffer (37° C., 5 mL), which was aerated with a mixed gas of 95% O2 and 5% CO2. The tension values of the specimens were measured using a Magnus system equipped with an isometric transducer and an amplifier, and the measured values were recorded on a computer via a data collection system. The specimens were suspended with a load of about 0.5 g. More than 1 hr later, potassium chloride (100 mmol/L) was added and the maximal contraction response was observed. After washing with Krebs buffer, the specimens were suspended with a load of about 0.5 g for stabilization. A potassium chloride solution (7.5 mmol/L) was added to induce the contraction of the specimens. After the contraction-inducing response was stabilized, the test compound was added in a cumulative manner and the response was observed before and after the treatment with the drug. The change of tension (%) of a test compound of each concentration was calculated with setting the contraction evoked by the addition of potassium chloride solution (mg) at 100%.

With Arginine, in data set [1], the State result is listed as “Oily” and the “State of the salt” value is recorded as “amorphous oily substances”.

As for `C[C@@](O)(C/C=C/[C@H]1CCC(=O)[C@@H]1CCSc1nc(C(=O)O)cs1)CCC(F)=C(F)F` [Crystalline Form C, piperidin-4-ylmethanol 2-[(2-{(1R,5R)-2-oxo-5-[(1E,4S)-7,8,8-trifluoro-4-hydroxy-4-methyl-1,7-octadien-1-yl]cyclopentyl}ethyl)thio]-1,3-thiazole-4-carboxylate], the entries for the “Residual percentage (%)” value in data set [2] (40° C.-75% RH-one month), in data set [2] (40° C.-one month) and in data set [2] (60° C.-one month) were 97.5%, 99.4% and 97.9%, respectively.

For Lysine, in data set [1], the State entry is “Oily” and the “State of the salt” value is given as “amorphous oily substances”.

For the molecule `C[C@@](O)(C/C=C/[C@H]1CCC(=O)[C@@H]1CCSc1nc(C(=O)O)cs1)CCC(F)=C(F)F` [Compound 17, 2-[(2-{(1R,5R)-2-oxo-5-[(1E,4S)-7,8,8-trifluoro-4-hydroxy-4-methyl-1,7-octadien-1-yl]cyclopentyl}ethyl)thio]-1,3-thiazole-4-carboxylic acid], the “Residual percentage (%)” value is listed as 58.6% in data set [2] (40° C.-75% RH-one month), 76.0% in data set [2] (40° C.-one month) and 60.4% in data set [2] (60° C.-one month). Moreover, in data set [2], the “residual percentages” value is “decreased”.

Turning to `CC1CCNCC1` [4-methylpiperidine], the “State of the salt” value in data set [1] is “amorphous oily substances”.

In the case of `c1ccc2c(c1)CNC2`, in data set [1], the State entry was “Oily”.

For `OCCC1CCNCC1` [drawing 22], the State entry in data set [1] is recorded as “Oily”.

Consider `C#CCN(C)C`, for which, in data set [1], the State result is given as “Oily”.

For `CNCCCO`, in data set [1], the State entry is reported as “Oily”.

Regarding `CCN(CC)CC` [Triethylamine], in data set [1], the State result is “Oily” and the “State of the salt” value is recorded as “amorphous oily substances”.

In the case of `C1CCC(NC2CCCCC2)CC1` [Dicyclohexylamine], in data set [1], the State result was “Oily” and the “State of the salt” value is given as “amorphous oily substances”.

Regarding `OCCC1CCNCC1` [4-piperidineethanol], in data set [1], the “State of the salt” value is on record as “amorphous oily substances”.

Take `C=CCNCC=C`: the State entry in data set [1] is “Oily”.

Consider `[Ca]` [Calcium], for which, in data set [1], the State result was “Oily” and the “State of the salt” value is recorded as “amorphous oily substances”.

Turning to `CN1CCCCC1`, the State result in data set [1] is on record as “Oily”.

Consider `c1ccc(CNCc2ccccc2)cc1`, for which, in data set [1], the State entry is recorded as “Oily”.

Take `CCc1ncc[nH]1`: the State entry in data set [1] is on record as “Oily”.

Take “Piperidin-4-ylmethanol 2-[(2-{(1R,5R)-2-oxo-5-[(1E,4S)-7,8,8-trifluoro-4-hydroxy-4-methyl-1,7-octadien-1-yl]cyclopentyl}ethyl)thio]-1,3-thiazole-4-carboxylate [Compound 18]”: the “Change of tension (%)” value in the data set with bladder detrusor (1 nmol/L) is recorded as 5.97%; in the data set with bladder detrusor (10 nmol/L), 54.35%; with bladder detrusor (100 nmol/L), 177.91%; in the data set on bladder detrusor (1 μmol/L), 245.91%. Further, the “Effect on the bladder detrusor (in words)” value in the data set on bladder detrusor was “contracted the bladder detrusor”. The State entry in data set [1] is given as “Crystalline solid”. In data set [2], the “residual percentages” value is on record as no less than 90%.

Consider `OC1CCNCC1` [drawing 24], for which the State entry in data set [1] is “Oily”.

For the molecule `[K+]` [Potassium], in data set [1], the State entry is listed as “Oily” and the “State of the salt” value is listed as “amorphous oily substances”.

`CC1CCNCC1` [drawing 23]: the State result in data set [1] is given as “Oily”.

In the case of `CNCCOC`, the State entry in data set [1] is recorded as “Oily”.

Take Sodium: in data set [1], the State result is given as “Oily” and the “State of the salt” value is reported as “amorphous oily substances”.

In the case of `C[C@@](O)(C/C=C/[C@H]1CCC(=O)[C@@H]1CCSc1nc(C(=O)O)cs1)CCC(F)=C(F)F` [Crystalline Form A, piperidin-4-ylmethanol 2-[(2-{(1R,5R)-2-oxo-5-[(1E,4S)-7,8,8-trifluoro-4-hydroxy-4-methyl-1,7-octadien-1-yl]cyclopentyl}ethyl)thio]-1,3-thiazole-4-carboxylate], the “Residual percentage (%)” value in data set [2] (40° C.-75% RH-one month) amounted to 92.0%; in data set [2] (40° C.-one month), 99.6%; in data set [2] (60° C.-one month), 98.6%.

With `OCCNCCO` [Diethanolamine], in data set [1], the State entry is on record as “Oily” and the “State of the salt” value is listed as “amorphous oily substances”.

Turning to `[Mg]` [Magnesium], in data set [1], the State entry is listed as “Oily” and the “State of the salt” value is reported as “amorphous oily substances”.

Regarding `COC1CCNCC1`, the State result in data set [1] is reported as “Oily”.

Take `CNCCNC`: in data set [1], the State entry is reported as “Oily”.

Regarding `C1CCCNCC1`, in data set [1], the State result was “Oily”.

As for `C[C@@](O)(C/C=C/[C@H]1CCC(=O)[C@@H]1CCSc1nc(C(=O)O)cs1)CCC(F)=C(F)F` [Crystalline Form B, piperidin-4-ylmethanol 2-[(2-{(1R,5R)-2-oxo-5-[(1E,4S)-7,8,8-trifluoro-4-hydroxy-4-methyl-1,7-octadien-1-yl]cyclopentyl}ethyl)thio]-1,3-thiazole-4-carboxylate], the “Residual percentage (%)” value is reported as 92.6% in data set [2] (40° C.-75% RH-one month), 99.6% in data set [2] (40° C.-one month) and 98.3% in data set [2] (60° C.-one month).

In the case of `CC(C)(C)N` [t-Butylamine], the State result in data set [1] is “Oily”.

Consider `CCNCCCCO`, for which the State result in data set [1] is given as “Oily”.

Consider `C1=CCNCC1`, for which the State entry in data set [1] is listed as “Oily”.

For the molecule `CCCCNCCC`, in data set [1], the State entry is reported as “Oily”.

Take `OC[C@@H]1CCCN1`: the State result in data set [1] is “Oily”.

Regarding `OC1CCNCC1` [4-hydroxypiperidine], the “State of the salt” value in data set [1] is “amorphous oily substances”.
